Where “and” joins values, the source holds several entries; their conditions need not be identical. Identical values can stand only once.
What was measured:
[1] = biological target: T1, Alpha-2C adrenergic receptor (Homo sapiens, UniProt P18825)
T1 sequence (P18825 whole entry): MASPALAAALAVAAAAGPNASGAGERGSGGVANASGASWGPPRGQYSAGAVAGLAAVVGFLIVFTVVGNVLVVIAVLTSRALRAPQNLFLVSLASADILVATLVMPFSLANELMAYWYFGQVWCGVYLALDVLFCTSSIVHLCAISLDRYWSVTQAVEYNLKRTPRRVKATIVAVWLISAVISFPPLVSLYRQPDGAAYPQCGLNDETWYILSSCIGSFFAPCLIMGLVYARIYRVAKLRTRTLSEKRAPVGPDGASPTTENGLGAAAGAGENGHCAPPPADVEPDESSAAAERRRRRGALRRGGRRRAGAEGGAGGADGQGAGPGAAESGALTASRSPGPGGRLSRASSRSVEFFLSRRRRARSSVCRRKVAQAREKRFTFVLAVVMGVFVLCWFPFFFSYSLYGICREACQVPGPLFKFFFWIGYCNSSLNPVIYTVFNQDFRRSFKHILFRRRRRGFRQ

[2] = biological target: T2, Alpha-2B adrenergic receptor (Rattus norvegicus, UniProt P19328)
T2 sequence (P19328 whole entry): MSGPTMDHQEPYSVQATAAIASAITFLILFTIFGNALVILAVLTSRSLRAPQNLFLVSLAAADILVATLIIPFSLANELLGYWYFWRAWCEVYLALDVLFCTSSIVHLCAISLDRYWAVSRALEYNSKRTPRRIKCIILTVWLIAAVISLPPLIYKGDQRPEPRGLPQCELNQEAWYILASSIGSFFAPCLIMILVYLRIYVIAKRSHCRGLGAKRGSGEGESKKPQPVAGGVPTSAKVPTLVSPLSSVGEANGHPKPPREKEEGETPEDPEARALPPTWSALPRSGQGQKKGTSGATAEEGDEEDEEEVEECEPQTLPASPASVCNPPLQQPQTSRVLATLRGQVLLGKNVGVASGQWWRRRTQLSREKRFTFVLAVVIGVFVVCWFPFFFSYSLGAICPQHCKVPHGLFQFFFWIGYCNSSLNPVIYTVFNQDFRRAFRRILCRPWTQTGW

[3] = biological target: Alpha-2C adrenergic receptor
[4] = biological target: T3, Alpha-2A adrenergic receptor (Homo sapiens, UniProt P08913)
T3 sequence (P08913 whole entry): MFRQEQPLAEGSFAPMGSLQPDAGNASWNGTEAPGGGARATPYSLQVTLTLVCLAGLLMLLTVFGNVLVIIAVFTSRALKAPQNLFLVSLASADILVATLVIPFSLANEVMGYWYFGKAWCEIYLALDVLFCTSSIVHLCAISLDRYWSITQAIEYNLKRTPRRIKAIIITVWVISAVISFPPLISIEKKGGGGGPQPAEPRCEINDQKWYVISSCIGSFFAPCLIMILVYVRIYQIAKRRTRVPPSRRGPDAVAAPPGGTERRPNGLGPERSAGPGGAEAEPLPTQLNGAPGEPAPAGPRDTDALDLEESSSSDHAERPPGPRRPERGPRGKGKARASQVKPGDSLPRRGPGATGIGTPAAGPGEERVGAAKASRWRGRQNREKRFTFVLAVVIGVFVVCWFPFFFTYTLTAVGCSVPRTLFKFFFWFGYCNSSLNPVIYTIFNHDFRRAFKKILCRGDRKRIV

SMILES	Ki [1] [nM]	Ki [2] [nM]	Ki [3] [nM]	Ki [4]
O=C1NCN(c2ccccc2)C12CCN(CC1COc3ccccc3O1)CC2 (stereo not drawn) [8-(2,3-Dihydro-benzo[1,4]dioxin-2-ylmethyl)-1-phenyl-1,3,8-triaza-spiro[4.5]decan-4-one]	0.13	0.29	0.26	5.5 nM and 8.3 nM
COC(=O)C1=CO[C@@H](C)[C@@H]2CN3CCc4c([nH]c5ccccc45)[C@H]3C[C@H]12 [AKUAMMIGINE]		159	20	71 nM and 104 nM
COC(=O)C1=COC(C)C2CN3CCc4c([nH]c5ccccc45)C3CC12 (stereo not drawn) [Ajmalicine]		31.2	1.71	6.4 nM
CN1C[C@H](Cn2ccnc2-c2ccccc2)C[C@@H]2c3cccc4[nH]c(Br)c(c34)C[C@H]21 [BAM-1303]	0.39	6.94		0.39 nM and 1.34 nM
COc1ccccc1N1CCN(CCC2C(=O)c3ccccc3C(C)(C)C2=O)CC1 (stereo not drawn) [NSC_122211]	3.82			
COc1cccc(OC)c1OCCNCC1Oc2ccccc2OC1c1ccccc1 (stereo not drawn) [NSC_185453]	0.4	7.89	0.75	0.91 nM and 1.27 nM
